Laboratory results published in patent US9408826B2, “Isoflavone anti-viral compounds” (Kineta, Inc., priority 2010, dated 2016).

Tested on: Murine Encephalomyocarditis virus (EMCV)
Experiment: EMCV antiviral assay (cell viability by MTS)
Type: cell-based
Details: Huh7 cells; for Cell viability post-infection: EMCV 250 pfu, MTS
Method: Huh7 cells were grown under normal growth conditions and treated with the indicated amount of drug in media containing 0.5% DMSO. The cells were grown in the presence of drug for 5 hours and then infected with 250 pfu Murine Encephalomyocarditis virus (EMCV) for example obtained from ATCC #VR-129B. Infected cells were grown for an additional 18 hours and then cell viability was measured using an MTS assay. Negative control cells were treated with buffer alone containing 0.5% DMSO. Interferon treatment was used as a positive control for virus inhibition and was added similar to drug treatments at a final concentration of 10 IU/mL for example Interferon-α: Intron A, from Schering-Plough. Cell viability was measured using an MTS assay such as; CellTiter 96® AQueous One Solution Cell Proliferation Assay (MTS), from Promega #G3580.

**Q.** With `CS(=O)(=O)Oc1ccc2c(=O)c(-c3ccc(Br)cc3)coc2c1` [KIN101, [3-(4-bromophenyl)-4-oxo-chromen-7-yl] methanesulfonate] as the molecule, how does the Cell viability post-infection (5 μM drug) read?
**A.** Its Cell viability post-infection is about 0.7.

**Q.** What about the Cell viability post-infection (10 μM drug) of the same molecule?
**A.** Its Cell viability post-infection is about 1.2.

**Q.** What about the Cell viability post-infection (20 μM drug) of the same molecule?
**A.** The Cell viability post-infection was about 1.45.

**Q.** What about the “Protection of cell viability following infection with EMCV (in words)” value of the same molecule?
**A.** The value was “protective of cell viability”.
